This passage reports IC50, inhibition and solubility results from ChEMBL document CHEMBL1795262, “Pyrazole-based sulfonamide and sulfamides as potent inhibitors of mammalian 15-lipoxygenase” (Bioorg Med Chem Lett, 2011).

≈ marks a conversion by molar mass, not a printed value.

In data set [1] the target is T1, Polyunsaturated fatty acid lipoxygenase ALOX15 (Oryctolagus cuniculus, UniProt P12530).
T1 sequence (P12530 whole entry): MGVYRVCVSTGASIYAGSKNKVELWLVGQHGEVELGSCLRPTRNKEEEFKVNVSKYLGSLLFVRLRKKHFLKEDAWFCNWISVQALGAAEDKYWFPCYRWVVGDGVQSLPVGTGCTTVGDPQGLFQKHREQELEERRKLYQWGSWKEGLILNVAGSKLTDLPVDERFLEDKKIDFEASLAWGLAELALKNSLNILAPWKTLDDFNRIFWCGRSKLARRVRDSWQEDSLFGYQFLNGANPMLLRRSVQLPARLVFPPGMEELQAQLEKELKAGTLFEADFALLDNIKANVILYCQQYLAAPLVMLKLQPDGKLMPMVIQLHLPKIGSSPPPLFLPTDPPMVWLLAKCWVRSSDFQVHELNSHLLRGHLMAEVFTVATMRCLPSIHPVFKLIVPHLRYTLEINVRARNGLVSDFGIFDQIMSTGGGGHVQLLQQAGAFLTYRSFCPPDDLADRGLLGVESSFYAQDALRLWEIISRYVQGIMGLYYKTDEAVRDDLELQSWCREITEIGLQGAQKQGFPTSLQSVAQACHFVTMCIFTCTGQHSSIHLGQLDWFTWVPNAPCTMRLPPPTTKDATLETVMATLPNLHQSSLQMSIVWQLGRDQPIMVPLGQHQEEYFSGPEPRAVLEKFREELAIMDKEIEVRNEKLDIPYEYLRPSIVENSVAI
Description: Inhibition of rabbit 15-LO using arachidonic acid by standard colorimetric assay.

The target of data set [2] is T1, Polyunsaturated fatty acid lipoxygenase ALOX15. Description: Inhibition of rabbit 15-LO using linoleic acid by standard colorimetric assay.
The species entered for data set [3] is Oryctolagus cuniculus. Description: Inhibition of 15-HETE production in New Zealand White rabbit whole blood at 10 uM by RP-HPLC. The class given is functional.
The nature of data set [4]: Aqueous solubility of the compound in water at pH 6.5.
For data set [5], the target named is T2, Polyunsaturated fatty acid lipoxygenase ALOX12 (Homo sapiens) (UniProt P18054).
T2 sequence (whole entry): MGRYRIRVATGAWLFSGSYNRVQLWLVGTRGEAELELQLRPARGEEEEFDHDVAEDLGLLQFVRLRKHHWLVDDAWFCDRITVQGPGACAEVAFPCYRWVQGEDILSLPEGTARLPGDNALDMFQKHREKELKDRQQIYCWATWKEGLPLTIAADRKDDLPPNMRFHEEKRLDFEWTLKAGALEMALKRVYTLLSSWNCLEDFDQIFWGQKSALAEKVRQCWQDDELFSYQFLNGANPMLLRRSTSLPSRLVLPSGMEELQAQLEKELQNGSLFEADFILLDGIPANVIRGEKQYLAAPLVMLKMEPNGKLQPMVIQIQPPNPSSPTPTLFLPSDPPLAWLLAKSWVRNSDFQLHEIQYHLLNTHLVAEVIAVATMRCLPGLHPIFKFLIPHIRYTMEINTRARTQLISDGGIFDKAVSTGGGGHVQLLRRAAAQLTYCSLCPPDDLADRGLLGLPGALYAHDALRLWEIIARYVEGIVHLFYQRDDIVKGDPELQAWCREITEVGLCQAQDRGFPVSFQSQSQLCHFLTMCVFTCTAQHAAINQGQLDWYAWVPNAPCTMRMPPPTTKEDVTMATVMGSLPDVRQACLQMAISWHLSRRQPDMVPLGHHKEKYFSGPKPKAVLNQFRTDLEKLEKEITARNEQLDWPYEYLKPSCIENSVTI
In words: Inhibition of 12-LO at 10 uM.

Data set [6] is filed under the species Oryctolagus cuniculus. In words: Inhibition of 15-HETE production in New Zealand White rabbit whole blood at 3 uM by RP-HPLC. The class given is functional.
Data set [7] is filed under the species Oryctolagus cuniculus. Description: Inhibition of 15-HETE production in New Zealand White rabbit whole blood at 1 uM by RP-HPLC. The class given is functional.
In data set [8] the target is T3, Polyunsaturated fatty acid lipoxygenase ALOX15 (Homo sapiens) (UniProt P16050).
T3 sequence (whole entry): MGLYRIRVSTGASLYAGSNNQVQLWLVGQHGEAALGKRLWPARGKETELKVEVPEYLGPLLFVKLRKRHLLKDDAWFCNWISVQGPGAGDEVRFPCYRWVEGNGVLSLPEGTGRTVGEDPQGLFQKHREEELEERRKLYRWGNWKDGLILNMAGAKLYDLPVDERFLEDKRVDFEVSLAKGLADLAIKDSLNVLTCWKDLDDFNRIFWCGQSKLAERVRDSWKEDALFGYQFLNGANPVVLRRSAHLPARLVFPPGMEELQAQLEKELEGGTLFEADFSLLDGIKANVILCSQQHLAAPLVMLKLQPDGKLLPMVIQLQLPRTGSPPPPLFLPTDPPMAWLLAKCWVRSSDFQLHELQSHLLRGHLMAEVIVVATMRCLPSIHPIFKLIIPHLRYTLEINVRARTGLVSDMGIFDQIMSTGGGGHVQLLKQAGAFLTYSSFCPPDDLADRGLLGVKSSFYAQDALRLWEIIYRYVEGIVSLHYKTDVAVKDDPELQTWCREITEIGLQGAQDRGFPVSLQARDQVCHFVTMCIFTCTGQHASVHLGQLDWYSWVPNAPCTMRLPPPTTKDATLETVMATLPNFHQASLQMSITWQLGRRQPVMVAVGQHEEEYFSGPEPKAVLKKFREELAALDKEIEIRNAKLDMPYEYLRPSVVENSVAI
In words: Inhibition of human 15-LO expressed in CHO cells at 3 uM by cell-based assay.

Data set [9] addresses T4, Polyunsaturated fatty acid 5-lipoxygenase (Homo sapiens, UniProt P09917).
T4 sequence (P09917 whole entry): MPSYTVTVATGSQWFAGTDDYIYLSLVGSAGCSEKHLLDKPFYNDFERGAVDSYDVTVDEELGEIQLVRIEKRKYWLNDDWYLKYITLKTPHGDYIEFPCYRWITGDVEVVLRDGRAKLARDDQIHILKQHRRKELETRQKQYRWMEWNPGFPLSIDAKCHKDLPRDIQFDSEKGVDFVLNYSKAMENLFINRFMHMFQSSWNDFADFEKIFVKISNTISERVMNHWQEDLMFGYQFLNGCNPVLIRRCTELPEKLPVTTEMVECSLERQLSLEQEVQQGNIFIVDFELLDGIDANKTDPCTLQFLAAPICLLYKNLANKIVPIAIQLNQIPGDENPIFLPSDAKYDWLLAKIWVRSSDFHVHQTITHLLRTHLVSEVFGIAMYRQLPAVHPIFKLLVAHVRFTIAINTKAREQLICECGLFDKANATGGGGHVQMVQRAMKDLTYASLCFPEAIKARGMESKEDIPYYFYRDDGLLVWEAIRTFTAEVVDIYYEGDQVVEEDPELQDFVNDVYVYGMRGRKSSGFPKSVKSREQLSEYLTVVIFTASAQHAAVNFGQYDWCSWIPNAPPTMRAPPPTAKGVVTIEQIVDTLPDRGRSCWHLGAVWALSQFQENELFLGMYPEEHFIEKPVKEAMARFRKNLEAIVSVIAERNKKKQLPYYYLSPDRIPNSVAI
In words: Inhibition of 5-LO.

The target of data set [10] is T3, Polyunsaturated fatty acid lipoxygenase ALOX15 (Homo sapiens). Description: Inhibition of human 15-LO expressed in CHO cells at 1 uM by cell-based assay.
Data set [11] addresses T5, Polyunsaturated fatty acid 5-lipoxygenase (Homo sapiens) (UniProt P09917).
T5 sequence (whole entry): T4 sequence (P09917 whole entry)
Description: Inhibition of 5-LO at 10 uM.

As to `CCCCCc1ccc(S(=O)(=O)NCCc2c(-c3cccs3)n[nH]c2-c2cnccn2)cc1`, the IC50 (as a rule, the concentration at which inhibition is half-maximal) in data set [1] was determined as 65 nM; in data set [2], 12 nM.
Consider `CCCCCc1ccc(S(=O)(=O)NCCc2c(-c3ccccc3)n[nH]c2-c2ccc(OC)cc2)cc1`, for which the IC50 in data set [1] worked out at 1560 nM; in data set [2] it was 150 nM.
As to `CCCCCc1ccc(S(=O)(=O)NCCc2c(-c3cccs3)n[nH]c2-c2cccs2)cc1`, the 50% inhibitory concentration (IC50) in [1] was found to be 19 nM; in data set [2], 4 nM. Further, the inhibition (as a rule, the percentage by which the read-out fell short of the control) at 10 µM in data set [3] is 25%. Also, the solubility (commonly how much of the substance goes into solution per volume) in [4] was determined as 0.2 µg/mL (≈ 0.412 µM). In data set [5], this compound gave an inhibition of 35%.
For `CCCCCc1ccc(S(=O)(=O)NCCc2c(-c3ccccc3)n[nH]c2-c2cccc(OC)c2)cc1`, the IC50 in data set [1] is 524 nM; in data set [2], 68 nM.
As to `CCN([C@@H]1CCN(C(C)c2ccc(F)cc2)C1)S(=O)(=O)NCCc1c(-c2cccs2)n[nH]c1-c1cnccn1` (some centres undefined), the inhibition at 3 µM in data set [6] was 73%. In [7], the inhibition at 1 µM came to 45%. Moreover, the concentration in solution in data set [4] (solubility) was 129 µg/mL (≈ 226 µM). This compound also registered an inhibition in data set [5] of 16%.
For `CCCCCc1ccc(S(=O)(=O)NCCc2c(-c3ccc(OC)cc3)n[nH]c2CC(C)C)cc1`, the IC50 in [2] came to 305 nM.
For the compound `CCN([C@@H]1CCN([C@@H](C)c2ccccc2)C1)S(=O)(=O)NCCc1c(-c2cccs2)n[nH]c1-c1cnccn1`, the figures for the half-maximal inhibitory concentration (IC50) in data set [1], in [2] and in data set [9] were 2.4 nM, 1.8 nM and 5.5 µM, respectively. For the same compound, the inhibition in data set [8] was determined as 94%; in [5] it was 32%. The compound also came in with an inhibition at 3 µM in data set [6] of 69%. Besides, in [7], the inhibition at 1 µM worked out at 39%. In data set [4], this compound came in with a solubility of 76 µg/mL (≈ 138 µM).
Regarding `CN([C@@H]1CCN(Cc2ccccc2)C1)S(=O)(=O)NCCc1c(-c2cccs2)n[nH]c1-c1cccs1`, the 50% inhibitory concentration (IC50) came to 7 nM in data set [1] and 2 nM in data set [2]. The inhibition in [10] stood at 79%. The compound also yielded an inhibition at 3 µM in data set [6] of 40%.
Regarding `CCCCCc1ccc(S(=O)(=O)NCCc2c(-c3cccs3)n[nH]c2-c2cccc(OC)c2)cc1`, the IC50 in [1] is 53 nM; in [2], 9 nM.
In turn, `CCCCCc1ccc(S(=O)(=O)NCCc2c(-c3ccccc3OC)n[nH]c2-c2ccccc2)cc1` displayed an IC50 in data set [2] of 1220 nM.
Take `CCCCCc1ccc(S(=O)(=O)NCCc2c(-c3cccs3)n[nH]c2-c2cc(C)on2)cc1`: the IC50 in data set [1] is 36 nM; in [2], 10 nM.
Take `CCCCCc1ccc(S(=O)(=O)NCCc2c(-c3ccccc3)n[nH]c2Cc2ccccc2)cc1`: the 50% inhibitory concentration (IC50) in data set [1] was 918 nM; in [2] it was 158 nM.
Turning to `CCCCCc1ccc(S(=O)(=O)NCCc2c(-c3cccs3)n[nH]c2-c2ccccc2)cc1`, the half-inhibitory concentration (IC50) in [1] is 28 nM; in [2], 11 nM.
On to `CN([C@@H]1CCN(Cc2ccccc2)C1)S(=O)(=O)NCCc1c(-c2cccs2)n[nH]c1-c1ccccc1`, for which the IC50 in data set [1] was found to be 7.5 nM; in data set [2], 3.6 nM. Moreover, 10 µM produced 44% inhibition in data set [3].
For `CCN([C@@H]1CCN(C(C)(C)c2ccccc2)C1)S(=O)(=O)NCCc1c(-c2cccs2)n[nH]c1-c1cnccn1`, the IC50 in data set [1] was determined as 4.1 nM; in data set [2] it was 2.7 nM. The inhibition in [8] came out at 83%; in [11], 60%; in data set [5] it was 35%. In addition, the inhibition at 10 µM in data set [3] came out at 63%. In [4], the solubility was 71 µg/mL (≈ 125 µM).
For `CCCCCc1ccc(S(=O)(=O)NCCc2c(-c3ccccc3)n[nH]c2-c2ccccc2)cc1`, the values for the IC50 in data set [1] and in data set [2] were 313 nM and 35 nM, respectively.
As for `CCN([C@@H]1CCN([C@H](C)c2ccccc2)C1)S(=O)(=O)NCCc1c(-c2cccs2)n[nH]c1-c1cnccn1`, the IC50 came to 8.2 nM in data set [1] and 5.3 nM in [2]. The inhibition turned out to be 61% in [8], 68% in data set [11] and 38% in data set [5]. This compound also yielded an inhibition at 10 µM in data set [3] of 55%. In [4], the solubility stood at 71 µg/mL (≈ 129 µM).
`COc1cccc(-c2[nH]nc(-c3cccs3)c2CCNS(=O)(=O)N(C)[C@@H]2CCN(Cc3ccccc3)C2)c1`: the IC50 in data set [1] amounted to 4.3 nM; in data set [2], 1.5 nM. This compound also yielded an inhibition in data set [10] of 51%. Besides, the inhibition at 10 µM in data set [3] was found to be 43%.
As for `CCCCCc1ccc(S(=O)(=O)NCCc2c(-c3ccc(OC)cc3)n[nH]c2C)cc1`, the IC50 in data set [2] turned out to be 3980 nM.
As to `CN([C@@H]1CCN(Cc2ccccc2)C1)S(=O)(=O)NCCc1c(-c2cccs2)n[nH]c1-c1cnccn1`, the half-inhibitory concentration (IC50) worked out at 7 nM in data set [1] and 3 nM in data set [2]. Moreover, the inhibition in data set [10] worked out at 81%. Also, the inhibition at 3 µM in [6] came out at 51%. In data set [4], this compound yielded a solubility of 79 µg/mL (≈ 151 µM).
Regarding `Cc1cc(-c2[nH]nc(-c3cccs3)c2CCNS(=O)(=O)N(C)[C@@H]2CCN(Cc3ccccc3)C2)no1`, the values for the IC50 in data set [1] and in data set [2] were 15 nM and 4.2 nM, respectively. The compound also gave an inhibition at 10 µM in data set [3] of 71%.
